Laboratory results: patent US11453703B2, “Heterotandem bicyclic peptide complexes” (BicycleTX Limited, priority 2018, dated 2022)

Experiments:
human Nectin-4 protein = target: T1, human Nectin-4 protein (Homo sapiens, UniProt Q96NY8); assay: Nectin-4 Biacore (SPR) binding assay; settings: biotinylated human Nectin-4, 25° C.
T1 construct: Human Nectin-4 (residues Gly32-Ser349); host or cells: Sf21 insect cells (baculovirus, pFastbac-1)
T1 sequence (Q96NY8 32-349): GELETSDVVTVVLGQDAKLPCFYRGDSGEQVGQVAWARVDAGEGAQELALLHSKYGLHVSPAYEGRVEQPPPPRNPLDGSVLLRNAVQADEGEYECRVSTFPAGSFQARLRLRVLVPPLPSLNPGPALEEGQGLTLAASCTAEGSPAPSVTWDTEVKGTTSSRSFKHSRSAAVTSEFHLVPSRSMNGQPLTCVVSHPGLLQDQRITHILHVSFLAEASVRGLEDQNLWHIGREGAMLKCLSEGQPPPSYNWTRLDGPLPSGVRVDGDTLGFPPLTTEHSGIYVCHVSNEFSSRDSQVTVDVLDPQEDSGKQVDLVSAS
Experimental: Biacore experiments were performed to determine ka (M^−1s^−1), kd (s^−1), KD (nM) values of heterotandem peptides binding to human Nectin-4 protein (obtained from Charles River). Human Nectin-4 (residues Gly32-Ser349; NCBI RefSeq: NP_112178.2) with a gp67 signal sequence and C-terminal FLAG tag was cloned into pFastbac-1 and baculovirus made using standard Bac-to-Bac™ protocols (Life Technologies). Sf21 cells at 1×10^6 ml^−1 in Excell-420 medium (Sigma) at 27° C. were infected at an MOI of 2 with a P1 virus stock and the supernatant harvested at 72 hours. The supernatant was batch bound for 1 hour at 4° C. with Anti-FLAG M2 affinity agarose resin (Sigma) washed in PBS and the resin subsequently transferred to a column and washed extensively with PBS. The protein was eluted with 100 μg/ml FLAG peptide. The eluted protein was concentrated to 2 ml and loaded onto an S-200 Superdex column (GE Healthcare) in PBS at 1 ml/min. 2 ml fractions were collected and the fractions containing Nectin-4 protein were concentrated to 16 mg/ml.
The protein was extensively desalted to remove uncoupled biotin using spin columns into PBS.
For analysis of peptide binding, a Biacore 3000 instrument was used with a CM5 chip (GE Healthcare). Streptavidin was immobilized on the chip using standard amine-coupling chemistry at 25° C. with HBS-N (10 mM HEPES, 0.15 M NaCl, pH 7.4) as the running buffer. Briefly, the carboxymethyl dextran surface was activated with a 7 minute injection of a 1:1 ratio of 0.4 M 1-ethyl-3-(3-dimethylaminopropyl) carbodiimide hydrochloride (EDC)/0.1 M N-hydroxy succinimide (NHS) at a flow rate of 10 μl/min. For capture of streptavidin, the protein was diluted to 0.2 mg/ml in 10 mM sodium acetate (pH 4.5) and captured by injecting 120 μl of streptavidin onto the activated chip surface. Residual activated groups were blocked with a 7 minute injection of 1 M ethanolamine (pH 8.5) and biotinylated Nectin-4 captured to a level of 1,200-1,800 RU. Buffer was changed to PBS/0.05% Tween 20 and a dilution series of the peptides was prepared in this buffer with a final DMSO concentration of 0.5%. The top peptide concentration was 100 nM with 6 further 2-fold dilutions. The SPR analysis was run at 25° C. at a flow rate of 50 μl/min with 60 seconds association and dissociation between 400 and 1,200 seconds depending upon the individual peptide. Data were corrected for DMSO excluded volume effects. All data were double-referenced for blank injections and reference surface using standard processing procedures and data processing and kinetic fitting were performed using Scrubber software, version 2.0c (BioLogic Software). Data were fitted using simple 1:1 binding model allowing for mass transport effects where appropriate.

CD137 [1] = target: T2, CD137 (Homo sapiens, UniProt Q07011); assay: CD137 reporter assay, co-culture with Nectin-4 tumour cells; type: cell-based; design: host or cells: Jurkat reporter cells; settings: for Fold Induction over Background: tumour target Nectin4, co-culture with H1376, 6 h;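 as to all read-outs here: jurkat reporter cells co-cultured with tumour cells and test article for 6 h, luminescence signal relative to Jurkat plus tumour cells lacking test article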
T2 sequence (Q07011 24-255): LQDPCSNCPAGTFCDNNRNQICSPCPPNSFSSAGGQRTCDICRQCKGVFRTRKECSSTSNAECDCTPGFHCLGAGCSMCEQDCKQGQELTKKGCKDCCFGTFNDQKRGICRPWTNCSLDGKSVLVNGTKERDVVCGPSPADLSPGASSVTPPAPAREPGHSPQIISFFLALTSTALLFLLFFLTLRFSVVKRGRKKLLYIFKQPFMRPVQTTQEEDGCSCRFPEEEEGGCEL

[2] = test system: human PBMC co-cultured with 4T1-D02 (Nectin4+); assay: Human PBMC-4T1 co-culture (cytokine release) assay; type: cell-based; settings: anti-CD3 stimulated PBMC, 48 hours
Experimental: Mouse mammary gland tumor cell line 4T1-1 (4T1-Parental) and murine Nectin-4 overexpressing 4T1 (4T1-D02) were cultured in RPMI1640 supplemented with 10% heat-inactivated Fetal Bovine Serum, 100 I.U/ml Penicillin and 100 I.U/Streptomycin, 20 mM HEPES, 1× Non-Essential Amino Acids, and 2 mM L-Glutamine (RPMI working medium). Frozen PBMCs from healthy human donors were thawed and washed one time in room temperature PBS, and then resuspended in RPMI working medium. For tumor cell and PBMC co-culture, 10000 PBMCs and 2000 tumor cells (5:1) were mixed and plated in each well of a 384 well plate. For stimulating human PBMCs, 125 ng/ml of soluble anti-CD3 mAb (clone OKT3) was added to the culture on day 0. Test, control compounds or vehicle controls were added to respective wells and brought the final volume per well to 100u1. Plates were incubated in a 37° C. cell culture incubator with 5% CO2 for up to three days. Supernatants were collected 48 hours after stimulation, and human IL-2 and IFFγ were detected using HTRF assays. Raw data were analyzed using Excel or Prism software to generate standard curves to interpolate protein concentrations. Data represents one study with three different donor PBMC tested in experimental duplicates.

CD137 [3] = target: T2, CD137; assay: CD137 Biacore (SPR) binding assay; design: purchased R&D systems; settings: biotinylated human CD137, 25° C.
Method in brief: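 Biotinylated human CD137 captured (270-1500 RU) on streptavidin-coupled dextran chip; peptides up to 500 nM in PBS/0.05% Tween 20, 0.5% DMSO, at 25°C, 60 s association, 900 s dissociation. Double-referenced data fitted to 1:1 binding model, with mass transport where appropriate.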

| Structure (SMILES) | Kd (human Nectin-4 protein) | fold induction at 0.1 µM (CD137 [1]; read-out: Fold Induction over Background at 100 nM) | max IFN-y [2] | Kd (CD137 [3]) | EC50 (CD137 [1]) | Fold Induction over Background (CD137 [1]) |
| --- | --- | --- | --- | --- | --- | --- |
| CCCC[C@@H]1NC(=O)[C@H](Cc2ccc(O)cc2)NC(=O)[C@@H]2CCCN2C(=O)[C@H](CC(=O)O)NC(=O)[C@H](C)NC(=O)[C@H](Cc2ccccc2)NC(=O)[C@@H]2CSCCC(=O)N3CN(CN(C3)C(=O)CCSC[C@@H](C(=O)N[C@@H](CNC(=O)CCOCCOCCOCCOCCOCCOCCOCCOCCOCCOCCOCCOCCn3cc(CCC(=O)NCCC(=O)N(C)CC(=O)N(C)CC(=O)N(C)CC(=O)N(C)CC(=O)N(C)CC(=O)N(C)CC(=O)N(C)CC(=O)N(C)CC(=O)N(C)CC(=O)N(C)CC(=O)N[C@H]4CSCCC(=O)N5CN6CN(C5)C(=O)CCSC[C@H](NC(=O)[C@@H](CC(=O)O)NC(=O)[C@H](Cc5cccc7ccccc57)NC(=O)[C@@H]5CCCN5C4=O)C(=O)N[C@@H](CCSC)C(=O)N[C@@H](CCCCNC(=N)N)C(=O)N[C@@H](CC(=O)O)C(=O)N[C@H](Cc4c[nH]c5ccccc45)C(=O)N[C@@H](CO)C(=O)N[C@@H]([C@@H](C)O)C(=O)N4CCC[C@H]4C(=O)N4C[C@H](O)C[C@H]4C(=O)N[C@H](Cc4c[nH]c5ccccc45)C(=O)N[C@H](C(N)=O)CSCCC6=O)nn3)C(N)=O)NC1=O)C(=O)CCSC[C@H](NC(=O)[C@H](C)NC(C)=O)C(=O)N[C@@H]([C@@H](C)CC)C(=O)N[C@@H](CCC(=O)O)C(=O)N[C@@H](CCC(=O)O)C(=O)NCC(=O)N[C@@H](CCC(N)=O)C(=O)N[C@@H](Cc1ccc(O)cc1)C(=O)N2 [BCY9350] | > 200 nM | < 2 | No Activity up to 1 μM |  |  |  |
| CCCC[C@@H]1NC(=O)[C@H](Cc2ccc(O)cc2)NC(=O)[C@@H]2CCCN2C(=O)[C@H](CC(=O)O)NC(=O)[C@H](C)NC(=O)[C@H](Cc2ccccc2)NC(=O)[C@@H]2CSCCC(=O)N3CN(CN(C3)C(=O)CCSC[C@@H](C(=O)N[C@@H](CNC(=O)CCc3cn(CCOCCOCCOCCOCCOCCNC(=O)N[C@H]4CSCCC(=O)N5CN6CN(C5)C(=O)CCSC[C@H](NC(=O)[C@@H](CC(=O)O)NC(=O)[C@H](Cc5cccc7ccccc57)NC(=O)[C@@H]5CCCN5C4=O)C(=O)N[C@@H](CCSC)C(=O)N[C@@H](CCCCNC(=N)N)C(=O)N[C@@H](CC(=O)O)C(=O)N[C@@H](Cc4c[nH]c5ccccc45)C(=O)N[C@@H](CO)C(=O)N[C@@H]([C@@H](C)O)C(=O)N4CCC[C@H]4C(=O)N4C[C@H](O)C[C@H]4C(=O)N[C@@H](Cc4c[nH]c5ccccc45)C(=O)N[C@H](C(N)=O)CSCCC6=O)nn3)C(N)=O)NC1=O)C(=O)CCSC[C@H](NC(=O)[C@H](C)NC(C)=O)C(=O)N[C@@H]([C@@H](C)CC)C(=O)N[C@@H](CCC(=O)O)C(=O)N[C@@H](CCC(=O)O)C(=O)NCC(=O)N[C@@H](CCC(N)=O)C(=O)N[C@@H](Cc1ccc(O)cc1)C(=O)N2 [BCY9411] | 1.48 nM |  |  | 71.1 nM | 14 nM | 41 fold |
| CCCC[C@@H]1NC(=O)[C@H](Cc2ccc(O)cc2)NC(=O)[C@@H]2CCCN2C(=O)[C@H](CC(=O)O)NC(=O)[C@H](C)NC(=O)[C@H](Cc2ccccc2)NC(=O)[C@@H]2CSCCC(=O)N3CN(CN(C3)C(=O)CCSC[C@@H](C(=O)N[C@@H](CNC(=O)CCc3cn(CCCNC(=O)CN(C)C(=O)CN(C)C(=O)CN(C)C(=O)CN(C)C(=O)CN(C)C(=O)COCCOCCOCCOCCOCCNC(=O)N[C@H]4CSCCC(=O)N5CN6CN(C5)C(=O)CCSC[C@H](NC(=O)[C@@H](CC(=O)O)NC(=O)[C@H](Cc5cccc7ccccc57)NC(=O)[C@@H]5CCCN5C4=O)C(=O)N[C@@H](CCSC)C(=O)N[C@@H](CCCCNC(=N)N)C(=O)N[C@@H](CC(=O)O)C(=O)N[C@@H](Cc4c[nH]c5ccccc45)C(=O)N[C@@H](CO)C(=O)N[C@@H]([C@@H](C)O)C(=O)N4CCC[C@H]4C(=O)N4C[C@H](O)C[C@H]4C(=O)N[C@@H](Cc4c[nH]c5ccccc45)C(=O)N[C@H](C(N)=O)CSCCC6=O)nn3)C(N)=O)NC1=O)C(=O)CCSC[C@H](NC(=O)[C@H](C)NC(C)=O)C(=O)N[C@@H]([C@@H](C)CC)C(=O)N[C@@H](CCC(=O)O)C(=O)N[C@@H](CCC(=O)O)C(=O)NCC(=O)N[C@@H](CCC(N)=O)C(=O)N[C@@H](Cc1ccc(O)cc1)C(=O)N2 [BCY9410] | 1.49 nM |  |  | 65.8 nM | 1.3 nM | 24 fold |
